pIC50: −log10 of the molar value.
Assays:
[1] = system: Isocitrate dehydrogenase [NADP] cytoplasmic (Homo sapiens), O75874 [R132H]; assay: Inhibition of IDH1 R132H mutant (unknown origin) expressed in HEK293T cells assessed as D2-HG level at 50 uM after 72 hrs relative to control; format: cell-based; details: values are per cent of control
[2] = Effective permeability of the compound at 25 ug/ml after 18 hrs by BBB-PAMPA method; format: ADME; details: read-out: Peff
[3] = (§1) Cytotoxicity against HEK293T cells harboring pMXs-IDH1wt-IRES-BsdRs assessed as cell survival at 50 uM after 72 hrs by CellTiterGlo assay relative to control; format: cell-based, HEK-293T; details: human, HEK293T cells harboring pMXs-IDH1wt-IRES-BsdRs; read-out: Survival
[4] = system: Isocitrate dehydrogenase [NADP] cytoplasmic (Homo sapiens), O75874 [R132H]; assay: Inhibition of IDH1 R132H mutant (unknown origin) expressed in HEK293T cells assessed as D2-HG level at 10 uM after 72 hrs relative to control; format: cell-based; details: values are per cent of control
[5] = Cytotoxicity against HEK293T cells harboring pMXs-IDH1wt-IRES-BsdRs assessed as cell survival at 10 uM after 72 hrs by CellTiterGlo assay relative to control; format: cell-based, HEK-293T; details: human, read-out: Survival
[6] = system: Isocitrate dehydrogenase [NADP] cytoplasmic (Homo sapiens), O75874 [R132C]; assay: Inhibition of IDH1 R132C mutant (unknown origin) expressed in HEK293T cells assessed as D2-HG level at 10 uM after 72 hrs relative to control; format: cell-based; details: values are per cent of control
[7] = system: Isocitrate dehydrogenase [NADP] cytoplasmic (Homo sapiens), O75874 [R132C]; assay: Inhibition of IDH1 R132C mutant (unknown origin) expressed in HEK293T cells assessed as D2-HG level at 50 uM after 72 hrs relative to control; format: cell-based; details: values are per cent of control
[8] = target: Isocitrate dehydrogenase [NADP] cytoplasmic (Homo sapiens, UniProt O75874, R132H); assay: Inhibition of IDH1 R132H mutant (unknown origin) expressed in HEK293T cells assessed as reduction in D2-HG level after 30 mins by resazurin-based fluorescence assay; format: cell-based
[9] = target: Isocitrate dehydrogenase [NADP] cytoplasmic (Homo sapiens, UniProt O75874, R132C); assay: Inhibition of IDH1 R132C mutant (unknown origin) expressed in HEK293T cells assessed as reduction in D2-HG level after 30 mins by resazurin-based fluorescence assay; format: cell-based
[10] = system: HEK-293T; assay: as §1; format: cell-based; details: human, hek-293t, 72 h, 50 µM

Isocitrate dehydrogenase [NADP] cytoplasmic (Homo sapiens), O75874 [R132C], sequence (O75874 whole entry R132C): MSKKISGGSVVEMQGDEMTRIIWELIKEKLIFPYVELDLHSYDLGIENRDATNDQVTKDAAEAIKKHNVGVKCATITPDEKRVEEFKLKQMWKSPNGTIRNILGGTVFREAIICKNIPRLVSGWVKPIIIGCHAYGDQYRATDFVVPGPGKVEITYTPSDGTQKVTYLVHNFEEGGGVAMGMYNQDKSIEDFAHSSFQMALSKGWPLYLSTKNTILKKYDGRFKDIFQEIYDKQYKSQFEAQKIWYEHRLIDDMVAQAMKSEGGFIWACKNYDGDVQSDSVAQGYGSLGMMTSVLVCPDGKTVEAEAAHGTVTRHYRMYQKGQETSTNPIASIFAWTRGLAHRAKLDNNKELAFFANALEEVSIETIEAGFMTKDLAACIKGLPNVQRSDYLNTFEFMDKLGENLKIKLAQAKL
Isocitrate dehydrogenase [NADP] cytoplasmic (Homo sapiens), O75874 [R132H], sequence (O75874 whole entry R132H): as the sequence (O75874 whole entry R132C) above, with C132H counted along it
Isocitrate dehydrogenase [NADP] cytoplasmic (Homo sapiens, UniProt O75874, R132C), sequence (O75874 2-414 R132C limits assumed): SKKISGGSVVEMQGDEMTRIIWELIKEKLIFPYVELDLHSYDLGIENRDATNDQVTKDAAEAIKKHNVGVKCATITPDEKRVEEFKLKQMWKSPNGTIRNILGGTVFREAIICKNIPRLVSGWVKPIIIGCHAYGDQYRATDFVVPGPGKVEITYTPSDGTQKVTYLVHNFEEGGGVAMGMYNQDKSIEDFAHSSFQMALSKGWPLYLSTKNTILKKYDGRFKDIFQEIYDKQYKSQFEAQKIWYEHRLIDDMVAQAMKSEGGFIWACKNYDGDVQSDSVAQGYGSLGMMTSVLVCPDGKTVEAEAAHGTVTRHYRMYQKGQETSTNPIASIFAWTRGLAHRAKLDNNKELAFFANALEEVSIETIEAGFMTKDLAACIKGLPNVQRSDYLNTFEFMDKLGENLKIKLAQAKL
Isocitrate dehydrogenase [NADP] cytoplasmic (Homo sapiens, UniProt O75874, R132H), sequence (O75874 2-414 R132H limits assumed): as the sequence (O75874 2-414 R132C limits assumed) above, with C131H counted along it

Compound | response, % of control [1] [%] | Papp at 18 h, 25 ug/ml [2] [×10⁻⁶ cm/s] | viability at 72 h, 50 µM [3] [%] | response, % of control [4] [%] | viability at 72 h, 10 µM [5] [%] | response, % of control [6] [%] | response, % of control [7] [%] | pIC50 [8] | pIC50 [9] | Activity [10]
CC(C)CCOc1cccc(C(=O)Nc2ccc(C(=O)Nc3cccc4ccccc34)cc2)c1 | 49.5 | 8.15 | 88.6 | 54.9 | 91.3 | 48.4 | 43.6 |  |  | 
COC(=O)C1C(=O)C2=C(CC1C)Nc1ccccc1NC2c1c[nH]c2ccccc12 (configuration not stated) |  |  |  |  |  |  |  | 4.30 | 4.30 | 
COC(=O)c1ccccc1NC(=O)CNCn1cnc2ccccc21 | 66.3 |  |  | 86.2 |  | 86.1 | 50.4 |  |  | Non-Toxic
COc1ccccc1NC(=O)c1c(NCc2cccnc2)sc2c1CC[C@H](C)C2 | 32 |  |  | 96.7 |  | 123 | 34.7 |  |  | Non-Toxic
CC(O)c1cccc(NC(=O)c2cnn3c2NC(c2ccccc2)CC3C(F)(F)F)c1 (configuration not stated) | 39.9 |  |  | 91.3 |  | 79.3 | 40.9 |  |  | Non-Toxic
Cc1ccc(NC(=O)c2cc([N+](=O)[O-])cc3c2-c2ccc([N+](=O)[O-])cc2C3=O)cc1 | 72.5 |  |  | 103 |  |  | 52.7 |  |  | Non-Toxic
COc1cccc(C(=O)Nc2cccc(OCC(=O)c3ccccc3)c2)c1 | 73.7 |  |  | 94.6 |  | 138 | 103 |  |  | Non-Toxic
O=C(Nc1cccc(NC(=O)c2cccc(S(=O)(=O)N3CCCCC3)c2)c1)c1ccc(Br)cc1 | 59.5 |  |  | 58.2 |  | 61.1 | 109 |  |  | Non-Toxic
Cc1ccccc1C(C(=O)NC1CCCCC1)N(C(=O)Cn1ccnc1C)c1cccc(F)c1 (configuration not stated) | 0.4 |  |  | 1.3 |  | 13.3 | 0.9 |  |  | 
